PMC9380258, “Primary and secondary functions of HLA-E are determined by stability and conformation of the peptide-bound complexes” (Cell Reports, 2022)

How the values were obtained:
[1] = tested on: HLA-E; assay type: binding, human
[2] = tested on: HLA-E; assay type: binding, human; remark: listed apart in the source
[3] = target: HLA-E*01:03 (Homo sapiens, UniProt P13747); experiment: SEC-SAXS of peptide-refolded HLA-E*01:03 complexes

RMAATAVVL [Mtb14 P7V]
increase in the ELISA-based binding signal [1]: 36%
increase in thermal stability [2]: 3.6 °C
decrease in the Rg [3]: 6.8 Å
decrease in the dmax [3]: 23 Å
